Reference: US10369123B2, “Perk activator for the treatment of neurodegenerative diseases” (DEUTSCHES ZENTRUM FÜR NEURODEGENERATIVE ERKRANKUNGEN E.V. …, priority 2014, dated 2019)

Biological target: T1, PERK (Homo sapiens, UniProt Q9NZJ5)
T1 sequence (Q9NZJ5 30-1116): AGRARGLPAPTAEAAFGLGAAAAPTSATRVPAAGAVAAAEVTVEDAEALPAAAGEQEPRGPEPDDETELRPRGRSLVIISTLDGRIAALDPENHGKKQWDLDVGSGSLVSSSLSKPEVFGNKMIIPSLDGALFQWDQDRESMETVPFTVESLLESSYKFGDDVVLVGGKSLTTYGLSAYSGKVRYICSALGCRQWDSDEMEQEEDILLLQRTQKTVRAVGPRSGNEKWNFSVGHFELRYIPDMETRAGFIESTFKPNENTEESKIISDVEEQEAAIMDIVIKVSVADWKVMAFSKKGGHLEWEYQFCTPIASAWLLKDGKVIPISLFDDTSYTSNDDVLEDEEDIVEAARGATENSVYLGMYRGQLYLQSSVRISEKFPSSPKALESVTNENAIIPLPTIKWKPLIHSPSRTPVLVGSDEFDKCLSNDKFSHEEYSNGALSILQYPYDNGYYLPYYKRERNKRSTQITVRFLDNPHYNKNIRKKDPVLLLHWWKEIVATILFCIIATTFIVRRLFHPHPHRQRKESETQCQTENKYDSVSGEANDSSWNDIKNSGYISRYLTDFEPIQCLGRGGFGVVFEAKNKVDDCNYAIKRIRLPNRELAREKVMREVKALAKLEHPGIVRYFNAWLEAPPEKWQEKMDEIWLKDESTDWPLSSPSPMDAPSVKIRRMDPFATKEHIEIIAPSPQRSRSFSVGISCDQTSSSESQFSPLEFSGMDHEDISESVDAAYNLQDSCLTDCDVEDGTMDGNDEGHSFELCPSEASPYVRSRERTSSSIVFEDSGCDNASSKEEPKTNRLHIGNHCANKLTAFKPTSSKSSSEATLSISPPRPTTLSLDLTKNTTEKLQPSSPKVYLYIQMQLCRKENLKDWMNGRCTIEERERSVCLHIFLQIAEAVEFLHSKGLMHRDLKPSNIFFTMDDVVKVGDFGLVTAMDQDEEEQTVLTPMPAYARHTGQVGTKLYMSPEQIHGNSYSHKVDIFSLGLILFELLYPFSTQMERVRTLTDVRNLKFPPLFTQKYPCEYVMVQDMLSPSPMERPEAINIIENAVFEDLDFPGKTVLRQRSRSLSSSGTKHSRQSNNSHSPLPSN
Test: Western blot for pEIF2A and pNRF2, annonacin model of tauopathy
Assay type: cell-based
Design: endogenous in cells; host or cells: LUHMES neurons (differentiated, human); in A5 transduced with lentivirus for 3R-/4R-tau or mCherry, not for PERK
Details: in the presence of 25 nM annonacin, 48 h
Procedure: Nunc™ Nunclon™ Delta 6-well (for protein and mRNA) or 48-well (for cell assays) plates (Thermo Fisher Scientific, Waltham, Mass., USA) were coated with 100 μg/ml poly-L-lysine (Sigma-Aldrich, St. Louis, Mo., USA) and 5 μg/ml fibronectin (Sigma-Aldrich). LUHMES (Lund Human Mesencephalic) cells, derived from human embryonic ventral mesencephalic cells by conditional immortalization (Tet-off v-myc over-expression) were seeded out in a concentration of 130,000 cells/cm^2 to achieve a confluence of 50%. They were then differentiated for 8 days in a medium of DMEM/F12 (Sigma-Aldrich), 1 μg/ml tetracycline, […] and 490 μg/ml dbcAMP into post-mitotic neurons with a dopaminergic phenotype (Lotharius et al. 2005). […]
Protein was extracted by scraping the cells from the culture plate with Mammalian Protein Extraction Reagent (M-PER, Thermo Fisher Scientific) and 1× cOmplete Protease Inhibitor Cocktail Tablets (Hoffmann-La Roche, Basel, Switzerland) and 1× PhosSTOP Phosphatase Inhibitor Cocktail Tablets (Hoffmann-La Roche). […] Protein concentrations were determined using the BCA kit (Thermo Fisher Scientific) by heating the samples at 60° C. for 30 min and measuring the absorption on the NanoDrop 2000c Spectrophotometer (Thermo Fisher Scientific). […]

Row | Structure (SMILES) | pEIF2A level (PERK inhibitor 300 nM) | pNRF2 level (PERK activator 200 nM)
1 | Cn1cc(-c2ccc3c(c2)CCN3C(=O)Cc2cccc(C(F)(F)F)c2)c2c(N)ncnc21 [GSK2606414, reference compound] | reduced pEIF2A levels significantly | –
2 | CCN(CC)CCC(=O)N1N=C(c2c(-c3ccccc3)c3cc(Br)ccc3[nH]c2=O)CC1c1ccc(Br)cc1 (centres unmarked) [CCT020312, 6-bromo-3-[5-(4-bromo-phenyl)-1-(3-diethylamino-propionyl)-4,5-dihydro-1H-pyrazol-3-yl]-4-phenyl-1H-quinolin-2-one] | – | increased only pNRF2 significantly
